Assay results taken from patent US20190322638A1, “DIPYRIDYL ALKALOID, PREPARATION METHOD THEREFOR AND USE THEREOF” (OCEAN UNIVERSITY OF CHINA, priority 2016, published 2019).
Where two headings read alike, the source gives them in different places.

Columns and labels:
[1] = Toxicity to normal cells, MTT method; type: cell-based; conditions: human, L-02 cell line
Procedure: (§1) Cell lines and subculture of cells: The following five tumor cell lines were used for activity test human colon cancer cell lines (HCT-116 cells), human hepatoma cell lines (HepG2 cells), human breast cancer cell lines (MCF-7 cells), cervical cancer cell lines (Hela cells), human peripheral blood leukemia T cell lines (Jurkat cells), and human normal liver cell lines (L-02 cells), of which MCF-7, HepG2, Hela, and L-02 cell lines were tested using the MTT model; HCT-116 cell lines were tested using the SRB model. All of the cells were subcultured in a 10% FBS-containing RPMI-1640 medium in an incubator charged with 5% carbon dioxide at 37° C.
(§2) MTT method: Dehydrogenase in mitochondria in live cells was capable of metabolizing yellow bromized 3-(4,5-dimethylthiazole)-2,5-diphenyltetrazolium into ianthinus water-insoluble formazan, and an amount of formazan could be determined by measuring the absorbance thereof with a microplate reader. Since the amount of formazan was directly proportional to the number of live cells, the number of live cells could be determined from the absorbance to learn about the drug's capability of inhibiting or killing tumor cells. […] The cell suspension was inoculated to a 96-well plate at 100 μL per well, and cultured at 37° C. for 24 hours. Thereafter, 100 μL of the sample solutions at different concentrations were added to respective wells and continued to be cultured for 72 hours. Then, 20 μL of MTT-containing IPMI-1640 solution ([…]) was added. After further cultivation for 4 hours, the culture solutions were slowly decanted and 150 μL of DMSO was added to dissolve the formazan, and the absorbance was measured at a wavelength of 540 nm. […] The half inhibitory concentration against cancer cells (IC50) and the half inhibitory concentration against normal cells (CC50) were determined.

[2] = test system: human colon cancer cell lines (HCT-116 cells); assay: In vitro antitumor activity, SRB method; type: cell-based; conditions: for SI = CC50 (normal cell line L-02)/IC50 (tumor cell line): HCT-116 cell line vs L-02; for IC50: Homo sapiens, read-out: Cytotoxic Activity IC50
Procedure: as §1
SRB method: According to the cell growth rate, tumor cells at the logarithmic phase (medium: RPMI-1640 medium containing 10% newborn fetal bovine serum (FBS); cell density: 3×10^4 cells/mL) were inoculated into a 96-well culture plate at 180 μL/well, and subjected to adherent growth for 24 hours at 37° C. under 5% CO2. Subsequently, a test sample was added at 20 μL/well, and four duplicated wells were provided at each concentration. […] The culture solution was decanted, and the cells were fixed with 10% cold trichloroacetic acid (TCA), allowed to stand at 4° C. for 1 hour, and then washed 5 times with distilled water and dried in the air. Thereafter, 100 μL/well of a 4 mg/ml solution of sulforhodamine B (SRB, Sigma) formulated by 1% glacial acetic acid was added, and the mixture was stained at a room temperature for 15 minutes, and the supernatant was removed, washed 5 times with 1% acetic acid, and dried in the air. Finally, 150 μL/well of Tris solution was added, and the absorbance (OD value) was measured with a microplate reader at a wavelength of 540 nm. […] The half inhibitory concentration against cancer cells (IC50) was determined.
(§3) Selection Index (SI) is the ratio of the CC50 value of a test sample inhibiting the growth of normal cell lines to the IC50 value of the test sample inhibiting tumor cell proliferation, which reflects the selectivity and safety of the sample.
(§4) SI=CC50(normal cell line L-02)/IC50(tumor cell line) Equation: […]

[3] = test system: cervical cancer cell lines (Hela cells); assay: In vitro antitumor activity, MTT method; type: cell-based; conditions: for SI = CC50 (normal cell line L-02)/IC50 (tumor cell line): Hela cell line vs L-02; for IC50: Homo sapiens, read-out: Cytotoxic Activity IC50
Procedure: as §1, §2, §3, §4

[4] = test system: human hepatoma cell lines (HepG2 cells); assay: In vitro antitumor activity, MTT method; type: cell-based; conditions: for SI = CC50 (normal cell line L-02)/IC50 (tumor cell line): HepG2 cell line vs L-02; for IC50: Homo sapiens, read-out: Cytotoxic Activity IC50
Procedure: as §1, §2, §3, §4

[5] = test system: human peripheral blood leukemia T cell lines (Jurkat cells); assay: In vitro antitumor activity, Jurkat cells; type: cell-based; conditions: for IC50: Homo sapiens, read-out: Cytotoxic Activity IC50; for SI = CC50 (normal cell line L-02)/IC50 (tumor cell line): Jurkat cell line vs L-02
Procedure: as §1, §3, §4

[6] = test system: human breast cancer cell lines (MCF-7 cells); assay: In vitro antitumor activity, MTT method; type: cell-based; conditions: for IC50: Homo sapiens, read-out: Cytotoxic Activity IC50; for SI = CC50 (normal cell line L-02)/IC50 (tumor cell line): MCF-7 cell line vs L-02
Procedure: as §1, §2, §3, §4

[7] = test system: colon cancer HCT-116 transplantation tumors; assay: In vivo antitumor test on transplantation tumors in nude mice; parameters: species or system BALB/C (nu/nu) nude mice; conditions: HCT-116, 14 days, Docetaxel 5 mg/kg intravenously every other day, Compound 2 7.5 mg/kg intraperitoneally daily; for Tumor Weight: X ± S; for Inhibition Rate % (tumor inhibition rate): vs negative control
Procedure: An in vivo antitumor test for Compound 2 was conducted on in vivo transplantation tumors from nude mice experiencing colon cancer HCT-116.
Laboratory mice: BALB/C, (nu/nu) nude mice, from 18 to 20 g in weight, male; purchased from BEIJING HFK BIOSCIENCE Co., LTD.; License No.: SCXK (Jing)-2014-0004.
Positive drug: Docetaxel, dissolved with Tween DMSO as a solvent and formulated into 9 mg/mL solution for service; diluted with normal saline.
Test drug: Compound 2, 10 mg/mL of stock solution being dissolved with DMSO, diluted with normal saline till the concentration was 0.75 mg/mL, and the administration volume was 0.1 mL/10 g body weight.
(§5) A cell suspension of human colon cancer cell line HCT-116 at a concentration of 30 million/mL was formulated in a 5 A medium containing 10% fetal bovine serum. After conventional disinfection, the cell suspension was inoculated subcutaneously into the armpits of the right forelimbs of the mice at a dose of 0.2 ml for each. The mice were not administered until the tumors had grown to an average volume of about 100 mm^3. Positive drugs, compounds, and negative control groups were arranged. The dosages were 5 mg/kg of Docetaxel (positive), and 7.5 mg/kg of Compound 2. Routes of administration were as follows: Docetaxel was intravenously administered every other day; Compound 2 was intraperitoneally injected daily; the negative control group was intraperitoneally injected with isometric normal saline. The mice were administered for 14 days, during which the mice were weighed daily and the variation trends of body weights of the mice were calculated. The mice were killed 24 hours after the last administration. Their tumor tissues were dissected, the tumor mass was weighed, and the tumor inhibition rate was calculated. The equation for calculating the tumor inhibition rate was as follows: […]
(§6) Statistical analysis: The SPSS 13.0 statistical software was used for data processing. The resulting data were marked with X±S. The data from each group were analyzed by t test, and the P value was used to indicate difference between groups.

[8] = Spleen index, body weight and behavioral observation of mice in the in vivo antitumor test; parameters: species or system BALB/C (nu/nu) nude mice; conditions: nude mice; for effect on body weight of the mice / effect on spleen index of mice (in words): 14 days administration; for Spleen Index (100 × spleen mass/body mass): 14 days, Docetaxel (10 mg/kg as printed in Table 11), Compound 2 7.5 mg/kg
Procedure: as §5, with “The dosages were 5 mg/kg of Docetaxel (positive), and 7.5 mg/kg of Compound 2.” left out
In the meantime, the spleens were removed from the mice, and the capsules were peeled off. The mass of the spleens of the mice was recorded respectively, and the spleen indices were calculated by the following equation:
spleen index=100×spleen mass/body mass.
as §6

[9] = HCT-116 cell line, SRB, 72 hours

Row | Structure (SMILES) | CC50 at 72 h ([1]; L-02 normal liver cells) | SI = CC50 (normal cell line L-02)/IC50 (tumor cell line) [2] | IC50 [2, 9] | SI = CC50 (normal cell line L-02)/IC50 (tumor cell line) [3] | IC50 ([3]; Hela cell line, MTT, 72 hours) | SI = CC50 (normal cell line L-02)/IC50 (tumor cell line) [4] | IC50 ([5]; Jurkat cell line) | SI = CC50 (normal cell line L-02)/IC50 (tumor cell line) [5] | further results
1 | C[C@@H]1O[C@@H](Oc2cc(/C=N/O)nc(-c3ccccn3)c2)[C@H](O)[C@H](O)[C@H]1O [Compound 1] | 28.3 µM | 40.4 | 0.7 µM | 3.1 | 9 µM | 10.5 | 10.8 µM | 2.6 | IC50 ([4]; HepG2 cell line, MTT, 72 hours): 2.7 µM
2 | COc1cc(/C=N/O)nc(-c2ccccn2)c1 [Compound 2] |  | 13.0 |  | 39 |  | 19.5 |  | 19.5 | CC50 at 72 h [1]: 3.9 µM; IC50 ([2]; HCT-116, 72 h): 0.3 µM; IC50 ([3]; HeLa, 72 h): 0.1 µM; IC50 ([6]; MCF7, 72 h): 1 µM; SI = CC50 (normal cell line L-02)/IC50 (tumor cell line) [6]: 3.9; IC50 ([4]; HepG2, 72 h): 0.2 µM; IC50 ([5]; Jurkat): 0.2 µM; Tumor Weight [7]: 0.59 ± 0.33 g; Inhibition Rate % (tumor inhibition rate) [7]: 42.46%; effect on body weight of the mice [8]: not adversely affected; effect on spleen index of mice (in words) [8]: no effect; Spleen Index (100 × spleen mass/body mass) [8]: 0.45 ± 0.09; behavioral observation: adverse effects ([8]; within 14 days after administration, 7.5 mg/kg intraperitoneally daily): no obvious adverse effects such as allergy were observed
3 | COc1cc(/C=N/O)nc(-c2ccccn2)c1O [Compound 4] |  | 1.2 |  |  |  |  |  |  | CC50 at 72 h [1]: 1.7 µM; IC50 ([2]; HCT-116, 72 h): 1.4 µM
4 | COc1cc(/C=N/O)nc(-c2ccc(F)cn2)c1 [Compound 5] | 7.5 µM |  |  | 1.7 | 4.4 µM |  |  |  | 
5 | COc1cc(C=O)nc(-c2ccccn2)c1 [Compound 6] | 31.4 µM | 5.2 | 6 µM | 1.6 | 19.3 µM |  | 14.5 µM | 2.2 | IC50 ([6]; MCF7, MCF-7 cell line, MTT, 72 hours): 12 µM; SI = CC50 (normal cell line L-02)/IC50 (tumor cell line) [6]: 2.6
6 | C[C@H]1O[C@H](Oc2cc(/C=N/O)nc(-c3ccccn3)c2)[C@H](O)[C@@H](O)[C@@H]1O [Compound 7] | 59.5 µM | 27.0 | 2.2 µM | 23.8 | 2.5 µM | 6.0 | 1.3 µM | 45.8 | IC50 ([4]; HepG2 cell line, MTT, 72 hours): 10 µM
7 | CC(=O)O[C@@]12CO[C@@H]1C[C@H](O)[C@@]1(C)C(=O)[C@H](O)C3=C(C)[C@@H](OC(=O)[C@H](O)[C@@H](NC(=O)OC(C)(C)C)c4ccccc4)C[C@@](O)([C@@H](OC(=O)c4ccccc4)[C@H]21)C3(C)C [Docetaxel, reference compound] |  |  |  |  |  |  |  |  | Tumor Weight [7]: 0.13 ± 0.07 g; Inhibition Rate % (tumor inhibition rate) [7]: 87.39%; effect on body weight of the mice [8]: decreased; effect on spleen index of mice (in words) [8]: decreased; Spleen Index (100 × spleen mass/body mass) [8]: 0.25 ± 0.11
